The values that follow come from article PMC8088928 (Cancer Science, 2021).

Structures are written as SMILES.

The target in assay [1] is Recombinant Human Her2/ErbB2 Protein (Homo sapiens, UniProt P04626). In words: Microscale thermophoresis. The format is binding.
A further assay has as its system MKN‐45 cells. In words: CCK‐8 cytotoxicity / proliferation assay. The format is cell-based, human. The settings on record: for IC50: Homo sapiens, MKN-45, 72 h, read-out: IC50 (cytotoxic activity); for Effect on proliferation of tumor cells (in words): MKN‐45 cells, 72 h, CCK‐8.
The target in a further assay is Human PD‐L1 Fc Protein (Homo sapiens, UniProt Q9NZQ7). In words: Microscale thermophoresis. It counts as binding.
The target of a further assay is HER2 kinase (Homo sapiens, UniProt P04626). In words: Enzyme activity assay of HER2. It counts as biochemical.
HER2 kinase, sequence (P04626 23-1255): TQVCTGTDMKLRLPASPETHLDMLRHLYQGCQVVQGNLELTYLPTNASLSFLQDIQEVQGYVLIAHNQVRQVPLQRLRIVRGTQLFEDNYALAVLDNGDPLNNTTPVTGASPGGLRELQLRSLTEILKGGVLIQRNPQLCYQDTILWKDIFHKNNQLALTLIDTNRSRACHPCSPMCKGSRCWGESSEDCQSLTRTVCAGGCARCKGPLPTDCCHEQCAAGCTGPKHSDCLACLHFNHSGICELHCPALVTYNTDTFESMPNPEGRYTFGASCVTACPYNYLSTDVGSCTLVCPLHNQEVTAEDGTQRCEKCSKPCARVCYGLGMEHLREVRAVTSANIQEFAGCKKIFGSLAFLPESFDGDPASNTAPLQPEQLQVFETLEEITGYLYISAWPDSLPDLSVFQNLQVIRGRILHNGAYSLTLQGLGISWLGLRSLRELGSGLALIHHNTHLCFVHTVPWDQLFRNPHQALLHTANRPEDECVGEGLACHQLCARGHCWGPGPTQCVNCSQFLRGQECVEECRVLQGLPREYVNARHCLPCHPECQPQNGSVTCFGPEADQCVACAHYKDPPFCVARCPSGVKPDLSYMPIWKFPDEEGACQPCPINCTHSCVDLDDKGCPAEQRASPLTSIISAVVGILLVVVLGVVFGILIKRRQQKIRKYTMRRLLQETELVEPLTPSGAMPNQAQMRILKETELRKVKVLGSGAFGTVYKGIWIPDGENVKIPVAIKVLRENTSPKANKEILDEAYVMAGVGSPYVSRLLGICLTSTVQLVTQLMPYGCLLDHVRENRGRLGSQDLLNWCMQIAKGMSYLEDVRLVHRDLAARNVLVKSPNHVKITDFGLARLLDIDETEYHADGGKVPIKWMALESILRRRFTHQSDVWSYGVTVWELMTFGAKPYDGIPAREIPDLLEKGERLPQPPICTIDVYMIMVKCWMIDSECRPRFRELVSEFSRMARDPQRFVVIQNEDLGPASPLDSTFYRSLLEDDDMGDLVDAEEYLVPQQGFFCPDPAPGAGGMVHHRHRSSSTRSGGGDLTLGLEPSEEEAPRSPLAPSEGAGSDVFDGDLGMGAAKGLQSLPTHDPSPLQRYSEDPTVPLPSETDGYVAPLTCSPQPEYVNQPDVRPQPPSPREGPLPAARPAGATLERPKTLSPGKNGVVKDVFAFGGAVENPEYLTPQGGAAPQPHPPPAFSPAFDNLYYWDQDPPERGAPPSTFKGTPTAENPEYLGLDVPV

Human PD‐L1 Fc Protein, sequence (Q9NZQ7 19-238 limits assumed): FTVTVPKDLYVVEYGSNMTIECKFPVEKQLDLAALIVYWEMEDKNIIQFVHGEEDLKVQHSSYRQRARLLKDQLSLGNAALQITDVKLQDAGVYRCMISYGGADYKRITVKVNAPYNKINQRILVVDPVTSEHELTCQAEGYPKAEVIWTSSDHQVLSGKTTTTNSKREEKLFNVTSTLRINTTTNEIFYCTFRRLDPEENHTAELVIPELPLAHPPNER
Recombinant Human Her2/ErbB2 Protein, sequence (P04626 23-1255): as the sequence (P04626 23-1255) above

On to `O=c1c(-c2ccc(O)cc2)coc2cc(O)ccc12` [Daidzein], for which, in assay [1], the equilibrium dissociation constant (Kd) was found to be 3700 nM. Besides, in the assay with MKN‐45 cells, the IC50 was determined as 21.5 µM and the “Effect on proliferation of tumor cells (in words)” value (“Effect on proliferation” for short) is given as “potential antiproliferative effects”.

Compound `COc1ccc(-c2coc3cc(O)ccc3c2=O)cc1` [Formononetin] registered a Kd at Human PD‐L1 Fc Protein of 355 nM. The “Effect on proliferation” value in the assay with MKN‐45 cells is recorded as “could not inhibit proliferation of tumor cells”.

Regarding `COc1cc(-c2oc3cc(O)cc(O)c3c(=O)c2O)ccc1O` [Isorhamnetin], the equilibrium dissociation constant (Kd) on Human PD‐L1 Fc Protein stood at 667 nM. Besides, in the assay with MKN‐45 cells, the IC50 was 10.8 µM and the “Effect on proliferation” value is on record as “potential antiproliferative effects”.

The compound `O=c1c(O)c(-c2ccc(O)c(O)c2)oc2cc(O)cc(O)c12` [Quercetin] yielded an IC50 against HER2 kinase of 570 nM. For the same compound, in assay [1], the Kd amounted to 490 nM. In the assay with MKN‐45 cells, the IC50 stood at 19.3 µM and the “Effect on proliferation” value is listed as “potential antiproliferative effects”.
